Where two headings read alike, the source gives them in different places. Blank lines part the entries; values can stand above or below the compound they belong to.
Tests used:
[1] = test system: acetylated α-tubulin; assay: Tubulin acetylation immunostaining; format: cell-based; settings: for tubulin acetylation: differentiated Neuro2A, 2 h, Tubastatin A 10 μM, TSA 50 nM, Paclitaxel 25 nM, SAHA 5 μM, Entinostat 10 μM, Tacedinaline 50 μM
Protocol: Then, cells were fixed with 4% formaldehyde and co-stained for acetylated α-tubulin and β-tubulin. Confocal images of the individual and merged channels are shown. Bar represents 20 μm. Further, a table is presented, showing the reagents and their respective targets, as well as the concentration at which the experiment was done.
FIG. 35 depicts micrographs showing the transient effect of Tubastatin A on tubulin acetylation. Neuro2a cells were treated with Tubastatin A (10 μM) for 12 hours. Then, chemicals were removed by replacement with complete media and cells were further incubated for 48 h. At various time points, cells were fixed with 4% formaldehyde and stained for acetylated α-tubulin (Green) and nucleus (Hoechst stain, Blue). Representative images were shown. Bar represents 20 μm.
Control and 10 μM differentiated Neuro2a Cells were fixed with 4% formaldehyde in 1×PBS for 20 min at room temperature and subsequently permeabilized in 0.5% Triton-X100 in 1×PBS. Then, the samples fixed cells were blocked with normal goat serum (1:10; Dako, Glostrup, Denmark) in 0.1% Triton X-100/1×PBS for 30 min at 37° C. The cells were then incubated with primary antibodies against acetylated α-Tubulin (Sigma Aldrich T7451, 1:200 dilution) or TuJ (R&D Systems MAB1195, 1:50 dilution) in 0.1% TritonX-100/1% BSA/1×PBS at 37° C. for 2 h and washed three times in 1×PBS. […] The cells were washed three times in 1×PBS and mounted. Image acquisition was performed using the Zeiss LSM710 with Axio Observer.Z1 confocal microscope system (Oberkochen, Germany). All images were taken with identical laser and optical settings.

[2] = test system: U251MG cells; assay: GFP transfection of U251MG cells (FACS); format: cell-based; settings: PEIMAX/PMAXGFP N/P=10; 10 μM Tubastatin A, 5 μM SAHA
Protocol: Furthermore, representative images of the FACS analysis and transfected cells for each conditions are presented. Error bar represents the standard error mean (S.E.M.) of n=3. […] Next, cells were harvested and GFP expressions were analysed by FACS analysis.

[3] = test system: U251MG cells; assay: Viable cell number after p53 transfection with transfection enhancers; format: cell-based; settings: for cell death / cell number with p53 transfection: pEGFP-N1-p53, 10 μM Tubastatin A, 5 μM SAHA
[4] = test system: human fetal MSC cells; assay: BMP2 expression in human MSC (qPCR); format: cell-based; settings: PEIMAX/PMAXGFP-BMP2 N/P=10; 3 day post transfection; 5 μM Tubastatin A, 150 nM TSA
[5] = test system: PC3 cells; assay: GFP transfection of PC3 cells (FACS); format: cell-based, human; settings: PEIMAX/PMAXGFP N/P=20
Protocol: Next, cells were harvested and GFP expression was analysed by FACS analysis. […] Representative images of the FACS analysis and transfected cells of each condition are presented. Error bar represents the standard error mean (S.E.M.) of n=3.

[6] = test system: KLF4 and c-Myc; assay: KLF4 and c-Myc expression in HaF (PCR); format: cell-based, human; settings: 1 mM VPA, up to 72 h
Protocol: Fibroblast cells were treated with 1 mM VPA for up to 3 days. At the end of incubation, the cells were collected and subjected to PCR analysis. Cells with no exposure to VPA (3 days) serve as control. Graphs present fold change to control after normalization with GAPDH.

[7] = biological target: HDAC1 (Homo sapiens, UniProt Q13547); settings: Targeted HDAC/Sirtuin: 1; cited from earlier work
Sequence of HDAC1 (Q13547 whole entry, species assumed): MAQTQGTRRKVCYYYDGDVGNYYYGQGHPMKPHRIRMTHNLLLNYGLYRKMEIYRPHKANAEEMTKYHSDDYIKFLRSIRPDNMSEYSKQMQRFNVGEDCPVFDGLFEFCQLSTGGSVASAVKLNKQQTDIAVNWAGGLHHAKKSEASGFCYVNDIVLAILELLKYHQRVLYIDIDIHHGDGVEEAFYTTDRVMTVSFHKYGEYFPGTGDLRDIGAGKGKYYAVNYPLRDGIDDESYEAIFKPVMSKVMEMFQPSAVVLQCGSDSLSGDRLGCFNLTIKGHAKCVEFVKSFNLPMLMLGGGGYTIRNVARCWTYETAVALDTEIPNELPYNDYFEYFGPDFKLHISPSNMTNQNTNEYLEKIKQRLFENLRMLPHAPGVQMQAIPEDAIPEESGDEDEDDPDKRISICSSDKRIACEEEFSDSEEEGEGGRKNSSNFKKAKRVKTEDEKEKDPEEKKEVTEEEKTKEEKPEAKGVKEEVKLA

[8] = biological target: T1, HDAC6 (Homo sapiens, UniProt Q9UBN7); settings: Targeted HDAC/Sirtuin: 6; cited from earlier work
T1 sequence (Q9UBN7 1-1215): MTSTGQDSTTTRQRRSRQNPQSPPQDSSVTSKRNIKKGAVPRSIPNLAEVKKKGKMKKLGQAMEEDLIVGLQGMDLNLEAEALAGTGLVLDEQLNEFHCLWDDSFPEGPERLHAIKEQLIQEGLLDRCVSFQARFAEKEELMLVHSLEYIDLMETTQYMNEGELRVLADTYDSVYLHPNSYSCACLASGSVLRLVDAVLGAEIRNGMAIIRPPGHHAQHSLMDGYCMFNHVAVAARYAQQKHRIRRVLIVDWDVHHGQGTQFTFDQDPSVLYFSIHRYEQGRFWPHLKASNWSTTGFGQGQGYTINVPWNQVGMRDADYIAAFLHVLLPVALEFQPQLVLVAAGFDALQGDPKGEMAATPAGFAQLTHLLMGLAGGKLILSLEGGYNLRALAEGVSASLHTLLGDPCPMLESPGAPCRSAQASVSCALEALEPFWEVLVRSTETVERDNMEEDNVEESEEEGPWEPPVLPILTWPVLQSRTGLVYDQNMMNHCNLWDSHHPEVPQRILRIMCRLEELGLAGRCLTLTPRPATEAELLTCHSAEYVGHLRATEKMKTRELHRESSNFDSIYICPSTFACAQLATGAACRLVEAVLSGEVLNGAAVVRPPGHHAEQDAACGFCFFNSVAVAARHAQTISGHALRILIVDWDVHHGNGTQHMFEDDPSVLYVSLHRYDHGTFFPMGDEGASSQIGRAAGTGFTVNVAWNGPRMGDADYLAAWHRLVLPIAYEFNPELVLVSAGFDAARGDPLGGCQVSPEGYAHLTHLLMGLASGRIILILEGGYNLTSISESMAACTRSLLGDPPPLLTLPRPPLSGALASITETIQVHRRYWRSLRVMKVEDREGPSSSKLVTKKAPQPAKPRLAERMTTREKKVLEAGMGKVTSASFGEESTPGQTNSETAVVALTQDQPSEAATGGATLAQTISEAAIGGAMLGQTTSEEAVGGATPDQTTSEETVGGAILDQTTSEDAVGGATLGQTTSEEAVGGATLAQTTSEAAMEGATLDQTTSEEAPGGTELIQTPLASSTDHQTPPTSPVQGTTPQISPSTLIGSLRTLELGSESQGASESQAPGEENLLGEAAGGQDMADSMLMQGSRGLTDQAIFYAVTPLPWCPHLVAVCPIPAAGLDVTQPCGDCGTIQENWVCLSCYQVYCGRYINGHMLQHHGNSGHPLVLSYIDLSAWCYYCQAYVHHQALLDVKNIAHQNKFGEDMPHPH

[9] = test system: Neuro2A cells; format: cell-based; settings: for uptake of polyplex: inhibitor 45 min prior transfection, LPEI/pDNA N/P=20, 4 h; for cell death at the concentrations used: Dynasore 30 μg/ml, Filipin III 5 μg/ml, Rottlerin […]
Protocol: A. Native and differentiated (10 μM RA) Neuro2a was treated with 2.5 μg/ml rottlerin, 5 μg/ml Filipin III or 30 μg/ml Dynasore for 45 min prior transfection. DMSO/0.5% FBS was used as control for treatment. After transfection with polyplex (N/P=20), cells were incubated at 4° C. or 37° C. for 4 h. Extracellular pDNA was removed by pAA/DNAse and cells were trypsinized. Then, samples were treated with pAA/urea lysis buffer and the absolute copy number of pDNA was quantified by qPCR. In similar experiments, native Neuro2A cells were incubated at 37° C. for 24 h post transfection. B. Representative fluorescent images (bottom rows), acquired 48 h post transfection. C. Percentage of cells expressing EGFP was counted. Significant differences in transfection efficiencies were calculated using the two tailed student's t-test. The data shown were the mean±s.e.m., n=4. *, p<0.05; **, p<0.005.
For studies using inhibitors, cells were incubated with Dynasore (30 μg/ml), Filipin III (5 μg/ml) or Rottlerin (2.5 μg/ml) in DMEM (0.5% FBS) for 45 min prior transfection. Cells were further incubated in DMEM (0.5% FBS) containing corresponding inhibitors post transfection.
To quantify DNA internalized by the cells, the supernatant was removed and the cells were washed once with 1×PBS and incubated in DMEM containing pAA/DNAse for 2 h at 4° C. Next, the cells were trypsinized and treated with pAA/urea lysis buffer. Efficiency of DNA release by pAA/urea lysis buffer and pAA/DNase was evaluated (Supplementary FIGS. 15 & 18). […] Primers specific for EGFP, forward primer (5′-3′, […]; SEQ ID NO:1) and reverse primer (5′-3′, […]; SEQ ID NO:2) were used. PCR quantification of the pDNA was performed as previously described (Yoong, L.F., G. Wan, and H.P. Too. Mol Cell Neurosci, 2009. 41(4): p. 464-73). The absolute amount of pDNA was determined using plasmid standards by interpolation.

[10] = test system: differentiated Neuro2A cells; assay: Transfection efficiency (EGFP positive cells) of differentiated Neuro2A; format: cell-based; settings: LPEI/pDNA N/P=20; chloroquine 25 or 100 μM, PLUS 10 or 20 μL, INF7 10 or 20 μg; 48 h
[11] = biological target: HDAC3 (Homo sapiens, UniProt O15379); settings: Targeted HDAC/Sirtuin: 3; cited from earlier work
Sequence of HDAC3 (O15379 whole entry): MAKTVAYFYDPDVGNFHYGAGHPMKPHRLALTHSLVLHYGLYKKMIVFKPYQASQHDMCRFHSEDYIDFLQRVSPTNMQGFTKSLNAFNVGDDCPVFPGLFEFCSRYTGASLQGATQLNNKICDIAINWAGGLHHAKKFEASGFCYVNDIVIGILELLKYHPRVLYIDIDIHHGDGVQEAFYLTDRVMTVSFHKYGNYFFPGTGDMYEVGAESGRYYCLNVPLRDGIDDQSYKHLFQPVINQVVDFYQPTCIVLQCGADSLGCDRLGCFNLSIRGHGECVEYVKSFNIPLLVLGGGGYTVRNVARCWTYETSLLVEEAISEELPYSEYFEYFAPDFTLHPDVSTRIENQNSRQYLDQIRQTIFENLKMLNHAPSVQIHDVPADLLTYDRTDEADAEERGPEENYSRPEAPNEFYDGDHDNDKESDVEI
Sequence of HDAC3 (Q9Y618 395-489 partner limits assumed): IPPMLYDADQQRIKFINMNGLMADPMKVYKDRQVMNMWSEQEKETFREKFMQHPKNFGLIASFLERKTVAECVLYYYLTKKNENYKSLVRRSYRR

[12] = test system: human fetal MSC cells; assay: GFP transfection of human fetal MSC; format: cell-based; settings: PEIMAX/PMAXGFP N/P=10; 100 nM Trichostatin A
Protocol: Next, cells were harvested and GFP expressions were analysed by FACS analysis. Graph represents % of GFP+ cells. Error bar represents the standard error mean (S.E.M.) of n=3. Statistical significance of transfection efficiencies between cells exposed to polyplexes only and other conditions were obtained using two tailed student's t-test; *, p<0.01. Representative images of the transfected cells of each condition are presented.
Human fetal MSC cells were transfected with PEIMAX/PMAXGFP complex at N/P=10. […] Three days after transfection, media was replaced with fresh culture media. Bright field and fluorescent images were taken at Day 2, 7, 14 and 21 days post transfection. Representative imaged are presented.

[13] = test system: MICA and NKG2D; assay: MICA and NKG2D expression in PC3 cells (PCR); format: cell-based, human; settings: 5 μM SAHA, up to 48 hours
Protocol: At the end of the incubation, the cells were collected and subjected to PCR analysis. […] The histogram here represented fold change to control after normalization with GAPDH.

[14] = differentiated (10 μM RA) Neuro2A

Compound: CN1CCc2c(c3ccccc3n2Cc2ccc(C(=O)NO)cc2)C1 [Tubastatin A]
duration of effect on tubulin acetylation ([1]; Neuro2a, Tubastatin A 10 μM for 12 hours then washout): < 24 h
tubulin acetylation [1]: markedly enhanced tubulin acetylation
transfection efficiency [2]: significant enhancement in transfection efficiency
cell death / cell number with p53 transfection [3]: did not result in greater reduction of cell number
BMP2 expression, fold over the negative control [4]: ~20,000 fold
enhancement of transfection [5]: significant enhancement of transfection

Compound: CC(=O)O[C@H]1C(=O)[C@@]2(C)[C@H]([C@H](OC(=O)c3ccccc3)[C@]3(O)C[C@H](OC(=O)[C@H](O)[C@@H](NC(=O)c4ccccc4)c4ccccc4)C(C)=C1C3(C)C)[C@]1(OC(C)=O)CO[C@@H]1C[C@@H]2O [paclitaxel]
tubulin acetylation [1]: markedly enhanced tubulin acetylation

Compound: CCCC(CCC)C(=O)O [Valproic Acid]
expressions of cMyc and KLF4 [6]: Gradual increment
IC50 [7]: 442 µM
IC50 [8]: 11800 µM

Compound: O=C(N/N=C/c1ccc(O)c(O)c1)c1cc2ccccc2cc1O [Dynasore]
uptake of polyplex [9, 14]: significantly inhibited the uptake of polyplex
uptake of polyplex ([9]; native Neuro2A): significantly inhibited the uptake of polyplex

Compound: C/C=C1\NC(=O)[C@H]2CSSCC/C=C/[C@H](CC(=O)N[C@H](C(C)C)C(=O)N2)OC(=O)[C@H](C(C)C)NC1=O [Romidepsin]
IC50 [7]: 0.08 µM

Compound: CC(=O)Nc1ccc(C(=O)Nc2ccccc2N)cc1 [Tacedinaline]
tubulin acetylation [1]: not

Compound: Nc1ccccc1NC(=O)c1ccc(CNC(=O)OCc2cccnc2)cc1 [Entinostat]
tubulin acetylation [1]: not

Compound: CCCCC[C@@H](O)[C@H]1C(=O)O[C@H](C)[C@@H](O)/C=C/C=C/C=C/C=C/C=C(\C)[C@@H](O)C[C@H](O)C[C@H](O)C[C@H](O)C[C@H](O)C[C@H](O)C[C@@H]1O [Filipin III]
cell death at the concentrations used [9]: no evidence of cell death
uptake of polyplex [9, 14]: did not affect polyplex uptake
uptake of polyplex ([9]; native Neuro2A): did not affect polyplex uptake

Compound: CCN(CC)CCCC(C)Nc1ccnc2cc(Cl)ccc12 (stereo not shown) [chloroquine]
enhancement of transfection, reagent added post-transfection [10]: did not show cumulative enhancement of transfection

Compound: MC-1293
IC50 [11]: 288 µM

Compound: CC(/C=C/C(=O)NO)=C\[C@@H](C)C(=O)c1ccc(N(C)C)cc1 [Trichostatin A]
tubulin acetylation [1]: markedly enhanced tubulin acetylation
enhancement of transfection [12]: significant enhancement of transfection
enhancement of transfection [5]: significant enhancement of transfection

expression of MICA and NKG2D [13]: induced up-regulation of MICA and NKG2D
Compound: O=C(CCCCCCC(=O)Nc1ccccc1)NO [SAHA, vorinostat]
tubulin acetylation [1]: markedly enhanced tubulin acetylation
cell number on increasing duration of incubation with SAHA ([3]; p53, DOPE/CHEMS, 5 μM SAHA for 48, 72 and 96 h): did not further reduce the cell number
cell death / cell number with p53 transfection [3]: resulted in more cell death

Compound: CC(=O)c1c(O)c(C)c(O)c(Cc2c(O)c3c(c(C(=O)/C=C/c4ccccc4)c2O)OC(C)(C)C=C3)c1O [Rottlerin]
cell death at the concentrations used [9]: no evidence of cell death
uptake of polyplex [9, 14]: not in differentiated cells
uptake of polyplex ([9]; native Neuro2A): reduced the uptake of polyplex significantly

Compound: O=C(/C=C/c1cccc(S(=O)(=O)Nc2ccccc2)c1)NO [Belinostat]
IC50 [8]: 0.41 µM

Reference: US10100331B2, “Reagent for gene-drug therapeutics” (Agency for Science, Technology and Research, priority 2012, dated 2018)
